Measured values reported in US8513205B2, “Potent chimeric NRTI-NNRTI bifunctional inhibitors of HIV-1 reverse transcriptase” (Yale University, priority 2008, dated 2013).
Where two headings read alike, the source gives them in different places.

Columns and labels:
HIV-1 RT [1] = molecular target: T1, HIV-1 RT (Human immunodeficiency virus type 1 group M subtype B, UniProt P03366); experiment: Steady-state competition assay, inhibition of single nucleotide incorporation by HIV-1 RT; assay type: biochemical
T1 construct: heterodimeric p66/p51 wild-type HIV-1 RT; His tag (histidine tag) (C); made in house
Description: dTTP and dGTP were purchased from GE Biosciences. Oligonucleotide primers and template were synthesized and purified using 20% denaturing gel-electrophoresis. […] Labeling and annealing of primer/templates were performed as described previously. Murakami, et al., J. Biol. Chem. 2003, 278, 36403-36409. Expression and Purification of HIV-1 RT.
C-terminal histidine tagged heterodimeric p66/p51 wild-type HIV-1 RT was expressed and purified as described previously (Kerr and Anerson, Biochemistry, 1997, 36, 14064-14070) using a clone generously provided by Stephen Hughes, Paul Boyer, and Andrea Ferris (Fredrick Cancer Research and Development Center, Fredrick, Md.).
DMSO concentrations were kept constant at less than 2%. DMSO alone was added as a no inhibitor control for each set of experiments. Reactions were initiated with the addition of 5 μM dNTP and 10 mM MgCl2 and were quenched after 15 minutes at 37° C. with 0.3 M EDTA. All concentrations represent final concentrations after mixing. Reaction products were subjected to 20% denaturing polyacrylamide gel-electrophoresis and quantitated on a Bio-Rad Molecular Imager FX. Product formation was plotted as a function of inhibitor concentration and fitted to a hyperbola to generate IC50 curves. IC50 values are defined as the concentration of inhibitor that inhibits steady-state single nucleotide incorporation by 50%.

HIV-1 RT [2] = molecular target: T1, HIV-1 RT; experiment: Incorporation assay under single turnover conditions (gel, FIG. 7); assay type: biochemical; settings: 30 min, with Mg++; for incorporation into primer opposite template A: D23/D36mer, primer for T incorporation, no dTTP; for incorporation into primer opposite template C: D24/D36mer, primer for G incorporation, no dGTP
Description: Controls for both primer/templates include 0 time points (lanes 1 and 4) and incubation for 30 min. with no Mg^++ (lanes 2 and 5).
Incorporation experiments were performed under single turnover conditions; 50 μM d4U-TP-4PEG-TMC and 10 mM MgCl2 were mixed with 250 nM RT (active sites) and 50 nM 5′-labeled primer/template to initiate the reaction. Negative controls were performed under identical conditions without MgCl2. The reaction was allowed to proceed for 30 minutes at 37° C., after which the reaction was quenched with 0.3 M EDTA. Reaction products were subjected to 20% denaturing polyacrylamide gel-electrophoresis and analyzed on a Bio-Rad Molecular Imager FX.

[3] = inhibition of dGTP incorporation opposite template C, D24/D36mer primer-template, read-out: IC50 incorrect base pair
[4] = inhibition of dTTP incorporation opposite template A, D23/D36mer primer-template, read-out: IC50 correct base pair

Compound | fold lower potency relative to parent TMC-derivative (HIV-1 RT [1]; correct base pair, D23/D36mer) | IC50 (HIV-1 RT [1]; [3]) | IC50 (HIV-1 RT [1]; [4]) | fold improvement in potency relative to TMC-4PEG-OH (HIV-1 RT [1]; correct base pair, D23/D36mer) | fold improvement relative to d4T-TP (HIV-1 RT [1]; correct base pair, D23/D36mer) | fold improvement relative to the TMC-derivative (HIV-1 RT [1]; correct base pair, D23/D36mer) | incorporation into primer opposite template A (HIV-1 RT [2]; listed as d4U-TP-4PEG-TMC) | incorporation into primer opposite template A (HIV-1 RT [2]; listed as d4UTP-4PEG-TMC) | incorporation into primer opposite template C (HIV-1 RT [2]; listed as d4U-TP-4PEG-TMC) | incorporation into primer opposite template C (HIV-1 RT [2]; listed as d4UTP-4PEG-TMC)
Cc1cc(C#CCOCCOCCOCCOCCO)cc(C)c1Oc1ccnc(Nc2ccc(C#N)cc2)n1 [TMC-4PEG-OH, E, 4-(4-{4-[3-(2-{2-[2-(2-Hydroxy-ethoxy)-ethoxy]-ethoxy}-ethoxy)-prop-1-ynyl]-2,6-dimethyl-phenoxy}-pyrimidin-2-ylamino)-benzonitrile] | 4 fold | 29 nM | 49 nM |  |  |  |  |  |  | 
Cc1cc(C#CCOCCOCCOCCOCCOCC#Cc2cn(C3C=CC(CO)O3)c(=O)[nH]c2=O)cc(C)c1Oc1ccnc(Nc2ccc(C#N)cc2)n1 (centres unmarked) [1b, d4U-propynyl-4-PEG-propynyl-TMC-120] |  | 35 nM | 16 nM | 3 fold |  |  |  |  |  | 
Cc1cc(C#CCOCCOCCOCCOCCOCC#Cc2cn(C3C=CC(COP(=O)(O)OP(=O)(O)OP(=O)(O)O)O3)c(=O)[nH]c2=O)cc(C)c1Oc1ccnc(Nc2ccc(C#N)cc2)n1 (centres unmarked) [1c, d4U-propynyl-4-PEG-propynyl-TMC-120 Triphosphate] |  | 38 nM | 3 nM |  | > 500 fold | 4-5 fold | formation of an elongated primer chain terminated with the bifunctional monophosphate | incorporation of the bifunctional-TP | not the D24/36mer primer-template | no product
